Assay results published in PubChem BioAssay AID2060903 (Molecular Pharmacology Branch, DTP, NCI, 2025).

Tested on: 377384-186-R-J1-PDC complex spheroid viability
Test: Anticancer human tumor 377384-186-R-J1-PDC patient-derived pancreatic carcinoma cell line growth inhibition [RAS]
Settings: for IC50: curve of first compound; for viability, T/C: stronger effect = lower value
Summary of the method: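 Agents were tested in combination matrices in half-log decrements from a top concentration at or near clinical Cmax (10 microM if undetermined). Targets were multi-cell spheroids of tumour lines plus HUVEC and MSC stromal cells.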

[1] = second compound 0.000949 µM, first compound 0.0316 µM
[2] = second compound 0.000949 µM, first compound 0.1 µM
[3] = second compound 0.000949 µM, first compound 0.316 µM
[4] = second compound 0.000949 µM, first compound 1 µM
[5] = second compound 0.000949 µM, first compound 3.16 µM
[6] = second compound 0.000949 µM, first compound 10 µM
[7] = second compound 0.003 µM, first compound 0.0316 µM
[8] = second compound 0.003 µM, first compound 0.1 µM
[9] = second compound 0.003 µM, first compound 0.316 µM
[10] = second compound 0.003 µM, first compound 1 µM
[11] = second compound 0.003 µM, first compound 3.16 µM
[12] = second compound 0.003 µM, first compound 10 µM
[13] = second compound 0.00949 µM, first compound 0.0316 µM
[14] = second compound 0.00949 µM, first compound 0.1 µM
[15] = second compound 0.00949 µM, first compound 0.316 µM
[16] = second compound 0.00949 µM, first compound 1 µM
[17] = second compound 0.00949 µM, first compound 3.16 µM
[18] = second compound 0.00949 µM, first compound 10 µM
[19] = second compound 0.03 µM, first compound 0.0316 µM
[20] = second compound 0.03 µM, first compound 0.1 µM
[21] = second compound 0.03 µM, first compound 0.316 µM
[22] = second compound 0.03 µM, first compound 1 µM
[23] = second compound 0.03 µM, first compound 3.16 µM
[24] = second compound 0.03 µM, first compound 10 µM
[25] = second compound 0.0949 µM, first compound 0.0316 µM
[26] = second compound 0.0949 µM, first compound 0.1 µM
[27] = second compound 0.0949 µM, first compound 0.316 µM
[28] = second compound 0.0949 µM, first compound 1 µM
[29] = second compound 0.0949 µM, first compound 3.16 µM
[30] = second compound 0.0949 µM, first compound 10 µM
[31] = second compound 0.3 µM, first compound 0.0316 µM
[32] = second compound 0.3 µM, first compound 0.1 µM
[33] = second compound 0.3 µM, first compound 0.316 µM
[34] = second compound 0.3 µM, first compound 1 µM
[35] = second compound 0.3 µM, first compound 3.16 µM
[36] = second compound 0.3 µM, first compound 10 µM
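Note: spheroids exposed to compounds for seven days before readout.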

CC(C)NCC(C(=O)N1CCN(c2ncnc3c2C(C)CC3O)CC1)c1ccc(Cl)cc1 (stereo unspecified) + CCn1c(-c2cc(N3CCN(C)CC3)cnc2C(C)OC)c2c3cc(ccc31)-c1csc(n1)CC(NC(=O)C1CC1C)C(=O)N1CCCC(N1)C(=O)OCC(C)(C)C2
IC50 (second compound 0.000949 µM): 126 nM | IC50 (second compound 0.003 µM): < 31.6 nM | IC50 (second compound 0.00949 µM): < 31.6 nM | IC50 (second compound 0.03 µM): < 31.6 nM | IC50 (second compound 0.0949 µM): < 31.6 nM | IC50 (second compound 0.3 µM): < 31.6 nM | viability, T/C [1]: 60.4% | viability, T/C [2]: 54.6% | viability, T/C [3]: 38.6% | viability, T/C [4]: 34.1% | viability, T/C [5]: 34.1% | viability, T/C [6]: 19% | viability, T/C [7]: 19.6% | viability, T/C [8]: 21.2% | viability, T/C [9]: 17.9% | viability, T/C [10]: 16.4% | viability, T/C [11]: 12.7% | viability, T/C [12]: 8.24% | viability, T/C [13]: 5.67% | viability, T/C [14]: 5.95% | viability, T/C [15]: 5.17% | viability, T/C [16]: 7.15% | viability, T/C [17]: 6.27% | viability, T/C [18]: 3.27% | viability, T/C [19]: 3.25% | viability, T/C [20]: 2.3% | viability, T/C [21]: 2.13% | viability, T/C [22]: 1.68% | viability, T/C [23]: 1.07% | viability, T/C [24]: 0.92% | viability, T/C [25]: 1.84% | viability, T/C [26]: 1.86% | viability, T/C [27]: 1.46% | viability, T/C [28]: 1.22% | viability, T/C [29]: 0.74% | viability, T/C [30]: 0.17% | viability, T/C [31]: 2% | viability, T/C [32]: 2.02% | viability, T/C [33]: 1.61% | viability, T/C [34]: 0.77% | viability, T/C [35]: 0.64% | viability, T/C [36]: 0.3%

CC(C)n1nc(-c2ccc3oc(N)nc3c2)c2c(N)ncnc21 + CCn1c(-c2cc(N3CCN(C)CC3)cnc2C(C)OC)c2c3cc(ccc31)-c1csc(n1)CC(NC(=O)C1CC1C)C(=O)N1CCCC(N1)C(=O)OCC(C)(C)C2
IC50 (second compound 0.000949 µM): 0.989 nM | IC50 (second compound 0.003 µM): < 0.316 nM | IC50 (second compound 0.00949 µM): < 0.316 nM | IC50 (second compound 0.03 µM): < 0.316 nM | IC50 (second compound 0.0949 µM): < 0.316 nM | IC50 (second compound 0.3 µM): < 0.316 nM | viability, T/C (second compound 0.000949 µM, first compound 0.000316 µM): 48.6% | viability, T/C (second compound 0.000949 µM, first compound 0.001 µM): 57.8% | viability, T/C (second compound 0.000949 µM, first compound 0.00316 µM): 35.5% | viability, T/C (second compound 0.000949 µM, first compound 0.01 µM): 26.4% | viability, T/C [1]: 16.2% | viability, T/C [2]: 10.3% | viability, T/C (second compound 0.003 µM, first compound 0.000316 µM): 20.1% | viability, T/C (second compound 0.003 µM, first compound 0.001 µM): 24.1% | viability, T/C (second compound 0.003 µM, first compound 0.00316 µM): 17.6% | viability, T/C (second compound 0.003 µM, first compound 0.01 µM): 13.7% | viability, T/C [7]: 8.27% | viability, T/C [8]: 4.84% | viability, T/C (second compound 0.00949 µM, first compound 0.000316 µM): 4.46% | viability, T/C (second compound 0.00949 µM, first compound 0.001 µM): 4.86% | viability, T/C (second compound 0.00949 µM, first compound 0.00316 µM): 4.1% | viability, T/C (second compound 0.00949 µM, first compound 0.01 µM): 5.4% | viability, T/C [13]: 4.11% | viability, T/C [14]: 2.39% | viability, T/C (second compound 0.03 µM, first compound 0.000316 µM): 2.29% | viability, T/C (second compound 0.03 µM, first compound 0.001 µM): 2.17% | viability, T/C (second compound 0.03 µM, first compound 0.00316 µM): 2.37% | viability, T/C (second compound 0.03 µM, first compound 0.01 µM): 1.66% | viability, T/C [19]: 1.3% | viability, T/C [20]: 0.91% | viability, T/C (second compound 0.0949 µM, first compound 0.000316 µM): 1.81% | viability, T/C (second compound 0.0949 µM, first compound 0.001 µM): 2.1% | viability, T/C (second compound 0.0949 µM, first compound 0.00316 µM): 2.12% | viability, T/C (second compound 0.0949 µM, first compound 0.01 µM): 1.18% | viability, T/C [25]: 0.96% | viability, T/C [26]: 0.58% | viability, T/C (second compound 0.3 µM, first compound 0.000316 µM): 1.71% | viability, T/C (second compound 0.3 µM, first compound 0.001 µM): 1.54% | viability, T/C (second compound 0.3 µM, first compound 0.00316 µM): 1.69% | viability, T/C (second compound 0.3 µM, first compound 0.01 µM): 1.04% | viability, T/C [31]: 0.89% | viability, T/C [32]: 0.59%

C[C@@H](NC(=O)c1ncnc(N)c1Cl)c1ncc(C(=O)Nc2cc(C(F)(F)F)c(Cl)cn2)s1 + CCn1c(-c2cc(N3CCN(C)CC3)cnc2C(C)OC)c2c3cc(ccc31)-c1csc(n1)CC(NC(=O)C1CC1C)C(=O)N1CCCC(N1)C(=O)OCC(C)(C)C2
IC50 (second compound 0.000949 µM): > 10000 nM | IC50 (second compound 0.003 µM): < 31.6 nM | IC50 (second compound 0.00949 µM): < 31.6 nM | IC50 (second compound 0.03 µM): < 31.6 nM | IC50 (second compound 0.0949 µM): < 31.6 nM | IC50 (second compound 0.3 µM): < 31.6 nM | viability, T/C [1]: 60.5% | viability, T/C [2]: 68% | viability, T/C [3]: 62.4% | viability, T/C [4]: 69.9% | viability, T/C [5]: 65.2% | viability, T/C [6]: 49% | viability, T/C [7]: 39.1% | viability, T/C [8]: 36.5% | viability, T/C [9]: 34.7% | viability, T/C [10]: 40.3% | viability, T/C [11]: 29.3% | viability, T/C [12]: 19.9% | viability, T/C [13]: 8.23% | viability, T/C [14]: 12.1% | viability, T/C [15]: 12.7% | viability, T/C [16]: 11.6% | viability, T/C [17]: 14% | viability, T/C [18]: 11.2% | viability, T/C [19]: 2.09% | viability, T/C [20]: 2.73% | viability, T/C [21]: 3.94% | viability, T/C [22]: 4.72% | viability, T/C [23]: 3.74% | viability, T/C [24]: 2.97% | viability, T/C [25]: 2.41% | viability, T/C [26]: 2.22% | viability, T/C [27]: 2.96% | viability, T/C [28]: 3.02% | viability, T/C [29]: 2.41% | viability, T/C [30]: 1.87% | viability, T/C [31]: 1.66% | viability, T/C [32]: 2.36% | viability, T/C [33]: 2.7% | viability, T/C [34]: 2.88% | viability, T/C [35]: 2.27% | viability, T/C [36]: 2.12%
